How the values were obtained:
[1] = test system: human gastric cancer (NCI-N87); assay: Example 5: FK330 with paclitaxel in NCI-N87 tumor-bearing mice; assay type: in vivo, nude mice; settings: for tumor volume on the last day of experiment: NCI-N87, Day 56, mean±SEM
Experimental: (§1) Preparation of the test substances was carried out in the same manner as in Example 2.
(§2) Human gastric cancer-derived NCI-N87 (CRL-5822) was obtained from American Type Culture Collection (VA, USA), MKN-28 (JCRB0253) was obtained from Health Science Research Resources Bank (HSRRB), and AZ-521 (RCB2087) was obtained from Riken BRC. NCI-N87 and MKN-28 cells were cultured under the conditions of 37° C. and 5% CO2 by using RPMI1640 medium containing 10% heat-inactivated fetal bovine serum (FBS), and AZ-521 cells were cultured under the conditions of 37° C. and 5% CO2 by using DMEM medium containing 10% heat-inactivated FBS. The cells were harvested with trypsin and were suspended in PBS at 6×10^7 cells/mL, and the suspension was mixed with an equal amount of Matrigel (trade name) Basement Membrane Matrix (manufactured by Becton Dickinson Co., Bedford, Mass., USA).
(§3) Five-week old male nude mice (CAnN Cg-Foxn1nu/CrlCrlj(nu/nu)) were purchased from Charles River Laboratories Japan, Inc. (Japan, Kanagawa). The animals were raised under specific pathogen-free (SPF) conditions throughout the test period by feeding standard feedstuff and drinking water. The cultured cells were subcutaneously inoculated into the dorsal region of the nude mice at a concentration of 3×10^6 cells/0.1 mL/mouse. […]
(§4) Every 2 to 4 days, the body weight and the tumor diameters, determined by using a digital caliper, were measured. The tumor volume was calculated from the calculation formula for ellipsoid volume of (major axis×[minor axis]^2×0.52).
(§5) The results are expressed as the mean value (Mean)±standard error (SEM). Using the actual measured values of the tumor volume at each measurement time point, an unpaired statistical test (Student's t-test) of the difference between two groups was carried out between a single administration group and a combined use group. […]

[2] = test system: ischemia/reperfusion injury in rat liver transplantation; settings: reported in Non-Patent Documents 3 and 4; cited from earlier work
[3] = test system: human gastric cancer (AZ-521); assay: Example 5: FK330 with paclitaxel in AZ-521 tumor-bearing mice; assay type: in vivo, nude mice; settings: for tumor volume on the last day of experiment: AZ-521, Day 46, mean±SEM
Experimental: as §1, §2, §3, §4, §5

[4] = test system: human non-small cell lung cancer (Calu-6); assay: Example 3: dose dependency of FK330 in enhancing paclitaxel in Calu-6 tumor-bearing mice; assay type: in vivo, nude mice; settings: Day 59; for tumor volume at the end of the study: mean±SEM
Experimental: Preparation of the test substances and conditioning of the cells were carried out in the same manner as in Example 2.
Five-week old male nude mice (CAnN Cg-Foxn1nu/CrlCrlj(nu/nu)) were purchased from Charles River Laboratories Japan, Inc. (Japan, Kanagawa). The animals were raised under specific pathogen-free (SPF) conditions throughout the test period by feeding standard feedstuff and drinking water. The cultured cells were subcutaneously inoculated into the dorsal region of the nude mice at a concentration of 3×10^6 cells/0.1 mL/mouse. Nude mice which had the tumor volumes (major axis×[minor axis]^2×0.52) ranging from 123.3 mm^3 to 274.4 mm^3 were assigned by using SAS to minimize the fluctuation in the tumor volume between the groups and within the group.
The first day of administration was designated as Day 0, and observation was made until Day 59. The respective groups (n=5) were treated as follows. FK330 was orally gavaged in an amount of 5 mL/kg, and paclitaxel was administered intravenously through the tail vein in an amount of 10 mL/kg. Paclitaxel was continuously administered from Day 0 to Day 5, and then was withdrawn for 21 days. This was defined as one cycle, and administration was carried out up to two cycles.
Paclitaxel single administration group: Paclitaxel 10 mg/kg/day (continuously administered for six days from Day 0 in Cycle 1, and continuously administered for 6 days from Day 27 in Cycle 2)
FK330 30 mg/kg bid (60 mg/kg/day)+paclitaxel 10 mg/kg/day (continuously administered for 6 days from Day 0 in Cycle 1, and continuously administered for 6 days from Day 27 in Cycle 2)
FK330 60 mg/kg bid (120 mg/kg/day)+paclitaxel 10 mg/kg/day (continuously administered for 6 days from Day 0 in Cycle 1, and continuously administered for 6 days from Day 27 in Cycle 2)
FK330 100 mg/kg bid (200 mg/kg/day)+paclitaxel 10 mg/kg/day (continuously administered for 6 days from Day 0 in Cycle 1, and continuously administered for 6 days from Day 27 in Cycle 2)
FK330 was orally gavaged (5 mL/kg) twice a day at an interval of 6 to 8 hours. Paclitaxel was administered by intravenous bolus injection (10 mL/kg) through the tail vein 2 to 4 hours after the administration of FK330.
as §4

[5] = test system: renal ischemia/reperfusion injury; settings: reported in Non-Patent Documents 3 and 4; cited from earlier work
[6] = paclitaxel-only group 10 mg/kg/day i.v., two cycles

Compound | tumor volume on the last day of experiment ([1]; combined use group paclitaxel + FK330 100 mg/kg bid) [mm^3] | tumor volume decrease compared with the paclitaxel-only group ([1]; NCI-N87, last day, FK330 100 mg/kg bid + paclitaxel, P<0.03) [%] | efficacy for ischemia/reperfusion injury in rat liver transplantation [2] | tumor volume on the last day of experiment ([3]; combined use group paclitaxel 10 mg/kg/day + FK330 100 mg/kg bid) [mm^3] | tumor volume decrease compared with the paclitaxel-only group ([3]; AZ-521, last day, FK330 100 mg/kg bid + paclitaxel, P<0.01) [%] | tumor volume reduction ratio compared with the paclitaxel-only group ([4]; FK330 30 mg/kg bid + paclitaxel 10 mg/kg/day) [%] | tumor volume at the end of the study ([4]; FK330 30 mg/kg bid combined use group with paclitaxel 10 mg/kg/day) [mm^3] | tumor volume reduction ratio compared with the paclitaxel-only group ([4]; FK330 60 mg/kg bid + paclitaxel 10 mg/kg/day) [%] | tumor volume at the end of the study ([4]; FK330 60 mg/kg bid combined use group with paclitaxel 10 mg/kg/day) [mm^3] | tumor volume reduction ratio compared with the paclitaxel-only group ([4]; FK330 100 mg/kg bid + paclitaxel 10 mg/kg/day) [%] | tumor volume at the end of the study ([4]; FK330 100 mg/kg bid combined use group with paclitaxel 10 mg/kg/day) [mm^3] | efficacy for monkey renal ischemia/reperfusion injury [5] | tumor volume on the last day of experiment [1, 6] [mm^3] | tumor volume on the last day of experiment [3, 6] [mm^3] | tumor volume at the end of the study ([4]; paclitaxel-only group, 10 mg/kg/day i.v., two cycles) [mm^3]
O=C(/C=C/c1ccc(Cl)cc1)N[C@@H](Cc1ccccn1)C(=O)NCC(=O)N1CCC(Oc2cc(C(F)(F)F)ncn2)CC1 [FK330, N^2-[(2E)-3-(4-chlorophenyl)-2-propenoyl]-N-[2-oxo-2-(4-{[6-(trifluoromethyl)pyrimidin-4-yl]oxy}piperidin-1-yl)ethyl]-3-pyridin-2-yl-L-alaninamide] | 223.9±85.1 | 54.5 | effective | 795.0±223.3 | 75.8 | 41.7 | 955.9±231.0 | 56.9 | 706.2±256.1 | 81.8 | 297.9±101.4 | effective |  |  | 
CC(=O)O[C@H]1C(=O)[C@@]2(C)[C@H]([C@H](OC(=O)c3ccccc3)[C@]3(O)C[C@H](OC(=O)[C@H](O)[C@@H](NC(=O)c4ccccc4)c4ccccc4)C(C)=C1C3(C)C)[C@]1(OC(C)=O)CO[C@@H]1C[C@@H]2O [paclitaxel, reference compound] |  |  |  |  |  |  |  |  |  |  |  |  | 492.0±48.5 | 3285.4±359.4 | 1640.1±902.8

— US20140066385A1, “METHOD FOR TREATING CANCER BY COMBINED USE OF DRUGS” (Astellas Pharma Inc., priority 2011, published 2014)
